Some test systems named below: SK-MEL-5 melanoma; SNB-75 CNS; SR leukemia; HCC-2998 colon; HCT-15 colon; A549 NSCLC; SF-268 CNS; SF-295 CNS; HT29 colon; UACC-257 melanoma; 786-0 renal.
Holding throughout (assay): inhibition of tumour cell growth, NCI panel, 48 h

Structures are written as SMILES.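 Tested at 5 concentrations; 48 h exposure; 96-well plates; endpoints linearly interpolated, else capped at highest concentration. TGI is the concentration that stops growth completely.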

As to `Nn1c(-c2ccccc2)n[nH]c1=O`, the TGI with SK-MEL-5 melanoma, in the assay on SNB-75 CNS, in the assay on SR leukemia, with HCC-2998 colon, with HCT-15 colon and with A549 NSCLC was > 100 µM each time. Also, the TGI in the assay on SF-268 CNS, in the assay with SF-295 CNS, in the assay with HT29 colon, in the assay with UACC-257 melanoma and in the assay on 786-0 renal was > 100 µM in each case.
As to `O=[N+]([O-])c1ccc2[nH]nc(OCc3ccccc3Cl)c2c1`, the TGI with SK-MEL-5 melanoma, in the assay on SNB-75 CNS, in the assay on SR leukemia, with HCC-2998 colon, with HCT-15 colon and in the assay on A549 NSCLC was > 100 µM throughout. In addition, the TGI with SF-268 CNS was > 100 µM; in the assay on SF-295 CNS it was > 100 µM; in the assay on HT29 colon, > 100 µM; with UACC-257 melanoma, > 100 µM; in the assay with 786-0 renal it was 59.4 µM.
In the case of `CCOC(=O)N1CCN(Cc2cc(=O)n3ccc(C)cc3n2)CC1`, the TGI in the assay on SK-MEL-5 melanoma, in the assay with SNB-75 CNS, in the assay on SR leukemia, in the assay with HCC-2998 colon, with HCT-15 colon and in the assay with A549 NSCLC was > 100 µM throughout. The TGI with SF-268 CNS, in the assay on SF-295 CNS, with HT29 colon, with UACC-257 melanoma and in the assay on 786-0 renal was > 100 µM in each case.
Consider `CC(=O)Nc1nc(NC(C)=O)c2[nH]c(CO)nc2n1`, for which the TGI in the assay on SK-MEL-5 melanoma, in the assay with SNB-75 CNS, in the assay on SR leukemia, with HCC-2998 colon, with HCT-15 colon and with A549 NSCLC was > 100 µM throughout. Also, the TGI in the assay on SF-268 CNS, in the assay on SF-295 CNS, in the assay on HT29 colon, in the assay on UACC-257 melanoma and with 786-0 renal was > 100 µM throughout.
As to `COc1ccc(-c2[nH]c3c4c(nc5c(c24)C(=O)CC(C)(C)C5)CC(C)(C)C3)cc1`, the TGI was > 100 µM in the assay with SK-MEL-5 melanoma; > 100 µM in the assay on SNB-75 CNS; 92.1 µM in the assay with SR leukemia; > 100 µM in the assay with HCC-2998 colon; > 100 µM with HCT-15 colon; > 100 µM with A549 NSCLC. Moreover, the TGI in the assay on SF-268 CNS, in the assay on SF-295 CNS, in the assay with HT29 colon, in the assay on UACC-257 melanoma and with 786-0 renal was > 100 µM each time.
As for `Nc1nccc(-c2c[nH]c3cc(Br)ccc23)n1`, the TGI with SK-MEL-5 melanoma was 36.7 µM; with SNB-75 CNS, > 100 µM; in the assay on SR leukemia, 46.7 µM; in the assay with HCC-2998 colon, 64.9 µM; in the assay with HCT-15 colon, > 100 µM; in the assay with A549 NSCLC, 35.5 µM. For the same molecule, the TGI in the assay with SF-268 CNS is > 100 µM; in the assay on SF-295 CNS, > 100 µM; in the assay on HT29 colon, 44.7 µM; in the assay on UACC-257 melanoma, 86.7 µM; with 786-0 renal, 46.9 µM.
With `Cc1cc(-c2nc3ccc(F)cc3s2)ccc1NC(=O)[C@H](C)N`, the TGI in the assay with SK-MEL-5 melanoma was 26.3 µM; in the assay on SNB-75 CNS it was 25.4 µM; in the assay on SR leukemia, 5.65 µM; with HCC-2998 colon, 4.5 µM; in the assay with HCT-15 colon, 14.1 µM; in the assay with A549 NSCLC, 24.6 µM. Also, the TGI with SF-268 CNS was 22.8 µM; with SF-295 CNS it was 24.7 µM; in the assay on HT29 colon, 8.38 µM; in the assay with UACC-257 melanoma it was 11.8 µM; in the assay on 786-0 renal, 16.9 µM.
As for `COC(=O)C1=C(C(=O)OC)SC(=C2SCSC3=C2SC(C(=O)OC)=C(C(=O)OC)C32SC3=C(CCCC3)S2)S1`, the TGI in the assay with SK-MEL-5 melanoma is > 100 µM; in the assay on SNB-75 CNS, 36.3 µM; in the assay on SR leukemia, > 100 µM; in the assay on HCC-2998 colon, > 100 µM; in the assay on HCT-15 colon it was > 100 µM; in the assay on A549 NSCLC, > 100 µM. Also, the TGI in the assay with SF-268 CNS, in the assay with SF-295 CNS, with HT29 colon, with UACC-257 melanoma and in the assay with 786-0 renal was > 100 µM each time.
As to `O=C(/C=C/c1ccccc1)C[C@@H](O)C[C@@H]1CC=CC(=O)O1`, the TGI with SK-MEL-5 melanoma is 26.6 µM; in the assay with SNB-75 CNS, > 53.7 µM; in the assay on SR leukemia it was 11.5 µM; in the assay with HCC-2998 colon, 15.7 µM; in the assay on HCT-15 colon, 25.4 µM; in the assay on A549 NSCLC, 52.2 µM. Moreover, the TGI in the assay with SF-268 CNS was 27.7 µM; with SF-295 CNS, 28 µM; in the assay on HT29 colon it was 16.8 µM; in the assay on UACC-257 melanoma it was 31.1 µM; with 786-0 renal, 12 µM.
`CC(=O)c1c2c(c3ccccc3c1O)O[C@@H]1OCC[C@H]21`: the TGI was > 100 µM in the assay on SK-MEL-5 melanoma; 34.2 µM in the assay with SNB-75 CNS; > 100 µM in the assay with SR leukemia; > 100 µM with HCC-2998 colon; > 100 µM in the assay with HCT-15 colon; > 100 µM with A549 NSCLC. The TGI in the assay with SF-268 CNS, in the assay with SF-295 CNS, with HT29 colon, in the assay on UACC-257 melanoma and in the assay on 786-0 renal was > 100 µM in each case.
Consider `O=[N+]([O-])c1cc(C=NC23CC4CC(CC(C4)C2)C3)ccc1Cl`, for which the TGI was 55.4 µM in the assay on SK-MEL-5 melanoma; > 100 µM in the assay with SNB-75 CNS; 12.9 µM in the assay on SR leukemia; 75.1 µM in the assay with HCC-2998 colon; 48.3 µM in the assay with HCT-15 colon; > 100 µM in the assay on A549 NSCLC. Moreover, the TGI with SF-268 CNS was > 85.9 µM; in the assay with SF-295 CNS it was 96.9 µM; in the assay on HT29 colon, 39.8 µM; with UACC-257 melanoma, 39.6 µM; in the assay on 786-0 renal, 41.2 µM.
Take `Nc1nc(-c2ccccc2)nc2oc(-c3cccs3)nc12`: the TGI with SK-MEL-5 melanoma, in the assay with SNB-75 CNS, in the assay on SR leukemia, in the assay with HCC-2998 colon, with HCT-15 colon and in the assay with A549 NSCLC was > 100 µM throughout. Moreover, the TGI in the assay on SF-268 CNS, in the assay on SF-295 CNS, in the assay with HT29 colon, in the assay with UACC-257 melanoma and in the assay on 786-0 renal was > 100 µM throughout.
Consider `C/C(=C\CBr)CCC(Br)C(C)(C)Br` (stereo not drawn), for which the TGI in the assay with SK-MEL-5 melanoma, with SNB-75 CNS, in the assay with SR leukemia, in the assay with HCC-2998 colon, in the assay on HCT-15 colon and in the assay on A549 NSCLC was > 100 µM each time. Also, the TGI in the assay on SF-268 CNS, with SF-295 CNS, in the assay on HT29 colon, in the assay with UACC-257 melanoma and with 786-0 renal was > 100 µM each time.

The values above are taken from PubChem BioAssay (NCI).
